Experimental data reported in patent publication US9920074B2 (ACEA BIOSCIENCES INC., priority 2013, dated 2018).

What was measured:
Format in all cases: cell-based
[1] = target: T1, Btk (Tyr223) phosphorylation in Ramos cells (Homo sapiens, UniProt Q06187); test: Btk Tyr223 phosphorylation inhibition, western blotting assay (Example 72); details: Btk Tyr223 phosphorylation, 45 min, 12 μg/mL IgM, read-out: BTK Inhibition
T1 construct: endogenous in cells; host or cells: Ramos cells (ATCC)
Description: Ramos cell line was obtained from the American Type Culture Collection and was maintained at 37° C. with 5% CO2, in media supplemented with 10% fetal bovine serum, penicillin (100 units/mL) and streptomycin (100 μg/mL), Goat F(ab′)2 Anti-Human IgM-UNLB was obtained from SouthernBiotech.
(§1) Ramos cells were treated with compounds at indicated doses for 45 min at room temperature, followed by stimulation of 12 μg/mL of IgM for 30 min, and then lysed. Western blots were performed on the cell lysate using Phospho-Btk (Tyr223), Phospho-Btk (Tyr551), Btk, Phospho-PLCγ2 (Tyr1217), PLCγ2, Phospho-p44/42 MAPK (Erk1/2) (Thr202/Tyr204) and p44/42 MAPK (Erk1/2) antibodies (Cell Signaling Technology). The density of blotting band was acquired using ImageJ software, and the IC50 of Btk (Tyr223) phosphorylation was fitted using a non-linear regression model by GraphPad Prism version 4.0.

[2] = test system: Stat5 phosphorylation in NK-92 cells; test: Western blotting assay for Stat5; details: NK92, 1 hour, IL-2 stimulation, read-out: Stat5 inhibition
Description: (§2) All cell lines were obtained from the American Type Culture Collection and were maintained at 37° C. with 5% CO2. Ramos cell line was maintained in media supplemented with 10% fetal bovine serum, penicillin (100 units/mL) and streptomycin (100 μg/mL). NK-92 cell line was maintained in media supplemented with 10% fetal bovine serum and 10% horse serum, penicillin (100 units/mL) and streptomycin (100 μg/mL), IL-2 10 ng/mL. Goat F(ab′)2 Anti-Human IgM-UNLB was obtained from SouthernBiotech. IL-2 was obtained from Peprotech.
NK-92 cells were treated with compounds at the dosed indicated for 1 hour in incubator, followed by the IL-2 stimulation for 15 minutes. Cells were then collected and lysed to prepare the cellular extraction. Western blots were performed on cell lysate using Phospho-Jak3, Jak3, Phospho-Stat5, Stat5 antibodies (Cell Signaling Technology). The intensity of blotting band was acquired using Image Lab (Bio-Rad) software, and the IC50 of target was generated with GraphPad Prism.

[3] = target: T1, Btk (Tyr223) phosphorylation in Ramos cells; test: Western blotting assay for Btk (Example 73); details: 45 min, 6 μg/mL anti-IgM, read-out: Btk Inhibition
Description: as §2
as §1, with “of 6” for “of 12”, “of anti-IgM” for “of IgM”, “GraphPad Prism.” for “GraphPad Prism version 4.0.”

[4] = target: T2, free Btk protein from Ramos cells (Homo sapiens, UniProt Q06187); test: Btk target site occupancy ELISA assay; details: 1 h, ELISA, read-out: Btk Occupancy Assay (IC50)
T2 construct: endogenous in cells; host or cells: Ramos cells (ATCC)
T2 sequence (Q06187 whole entry): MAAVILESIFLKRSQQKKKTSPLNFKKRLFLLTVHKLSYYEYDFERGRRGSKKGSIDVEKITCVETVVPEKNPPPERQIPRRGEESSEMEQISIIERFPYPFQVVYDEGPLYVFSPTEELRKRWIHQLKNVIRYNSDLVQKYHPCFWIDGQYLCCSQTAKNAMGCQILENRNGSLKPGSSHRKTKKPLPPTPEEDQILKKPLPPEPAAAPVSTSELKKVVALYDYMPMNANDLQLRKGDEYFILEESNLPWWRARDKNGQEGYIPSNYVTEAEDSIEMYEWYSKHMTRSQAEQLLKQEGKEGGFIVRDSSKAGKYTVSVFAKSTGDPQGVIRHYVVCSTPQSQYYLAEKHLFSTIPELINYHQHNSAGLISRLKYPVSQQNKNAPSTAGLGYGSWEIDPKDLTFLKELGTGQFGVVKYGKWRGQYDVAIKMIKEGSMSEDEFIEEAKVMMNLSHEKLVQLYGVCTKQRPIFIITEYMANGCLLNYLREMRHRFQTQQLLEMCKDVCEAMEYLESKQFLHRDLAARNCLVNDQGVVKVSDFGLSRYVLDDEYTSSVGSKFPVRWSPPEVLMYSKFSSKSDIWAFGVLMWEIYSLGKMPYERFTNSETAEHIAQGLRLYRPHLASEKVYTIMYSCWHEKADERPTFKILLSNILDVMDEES
Description: (§3) Ramos cells were treated with Compound I-1 at indicated concentrations for 1 h, followed by stimulation with 6 μg/mL of IgM for 30 mm, and then lysed. Lysates were incubated with Compound I-21 (biotin labeled) at a final concentration of 1 μM in a PBS, 0.05% Tween-20, 1% BSA solution while shaking for 1 h at room temperature. Samples were transferred to a streptavidin-coated 96-well ELISA plate and mixed while shaking for 1 h at room temperature. The Btk antibody (BD 611116, 1:1000 dilution in PBS+0.05% Tween-20+0.5% BSA) was then applied and incubated for 1 h at room temperature. After wash, goat anti-mouse-HRP (Pierce 31432, 1:1000 dilution in PBS+0.05% Tween-20+0.5% BSA) was added and incubated for 1 h at room temperature. The ELISA was developed with addition of tetramethyl benzidine (TMB) followed by Stop Solution and read at OD 450 nm.
as §3, with “Compounds” for “Compound I-1”, “anti-IgM” for “IgM”, “diluted” for “dilution”, “tetramethylbenzidine” for “tetramethyl benzidine”

T1 sequence (Q06187 whole entry): as above

Compound	IC50 [1] [nM]	IC50 [2] [nM]	IC50 [3] [nM]	IC50 [4] [nM]
C=CC(=O)Nc1cccc(Oc2nc(Nc3ccc(N[C@H]4CCN(CCF)C4)cc3)ncc2OC)c1 [Compound I-13, (S)—N-(3-(2-(4-(1-(2-fluoroethyl)pyrrolidin-3-ylamino)phenylamino)-5-methoxypyrimidin-4-yloxy)phenyl)acrylamide]	< 10	≥ 400	≤ 10	≤ 10
C=CC(=O)Nc1cccc(Oc2nc(Nc3ccc(N[C@H]4CCN(CCF)C4)cc3)ncc2F)c1 [Compound I-20, (S)—N-(3-(5-fluoro-2-(4-(1-(2-fluoroethyl)pyrrolidin-3-ylamino)phenylamino)pyrimidin-4-yloxy)phenyl)acrylamide]			≤ 10	≤ 10
C=CC(=O)Nc1cccc(Nc2nc(Nc3ccc(N[C@H]4CCN(CCF)C4)cc3)ncc2OC)c1 [Compound I-16, (S)—N-(3-(2-(4-(1-(2-fluoroethyl)pyrrolidin-3-ylamino)phenylamino)-5-methoxypyrimidin-4-ylamino)phenyl)acrylamide]	< 10	≥ 400	≤ 10	
C=CC(=O)Nc1ccccc1Nc1nc(Nc2ccc(N3CCN(CCF)CC3)cc2)ncc1F [Compound I-6, N-(2-(5-fluoro-2-(4-(4-(2-fluoroethyl)piperazin-1-yl)phenylamino)pyrimidin-4-ylamino)phenyl)acrylamide]	< 10	200 to 400	≤ 10	
C=CC(=O)Nc1cccc(Oc2nc(Nc3ccc(N4CCN(CCF)CC4)c(F)c3)ncc2F)c1 [Compound I-8]	< 10			
C=CC(=O)Nc1cccc(Oc2nc(Nc3ccc(N(C)[C@H]4CCN(C(C)=O)C4)cc3)ncc2OC)c1 [Compound I-58a, (S)—N-(3-(2-(4-((1-acetylpyrrolidin-3-yl)(methyl)amino)phenylamino)-5-methoxypyrimidin-4-yloxy)phenyl)acrylamide]		≥ 400	≤ 10	≤ 10
C=CC(=O)Nc1cccc(Oc2nc(Nc3ccc(N4CCN(CCF)CC4)cc3)ncc2OC)c1 [Compound I-9]	< 10	200 to 400	≤ 10	
C=CC(=O)Nc1cccc(Oc2nc(Nc3ccc(OCCOC)cc3)nc3[nH]ccc23)c1 [Compound I-10, N-(3-(2-(4-(2-methoxyethoxy)phenylamino)-7H-pyrrolo[2,3-d]pyrimidin-4-yloxy)phenyl)acrylamide]	< 10	200 to 400	≤ 10	10 to 100
C=CC(=O)Nc1cccc(Nc2nc(Nc3ccc(N[C@@H]4CCN(CCF)C4)cc3)ncc2F)c1 [Compound I-18]	< 10	200 to 400	≤ 10	
C=CC(=O)Nc1cccc(Oc2nc(Nc3ccc(N4CCN(CCF)CC4)c(F)c3)ncc2OC)c1 [Compound I-3, N-(3-(2-(3-fluoro-4-(4-(2-fluoroethyl)piperazin-1-yl)phenylamino)-5-methoxypyrimidin-4-yloxy)phenyl)acrylamide]	< 10	200 to 400	≤ 10	
C=CC(=O)Nc1cccc(Nc2nc(Nc3ccc(OCCOC)cc3)nc3[nH]ccc23)c1 [Compound I-11, N-(3-(2-(4-(2-methoxyethoxy)phenylamino)-7H-pyrrolo[2,3-d]pyrimidin-4-ylamino)phenyl)acrylamide]	10 to 100	≥ 400	10 to 100	
C=CC(=O)Nc1cccc(Oc2nc(Nc3ccc(N4CCN(CCF)CC4)cc3)ncc2F)c1 [Compound I-12]	10 to 100	200 to 400	10 to 100	
C=CC(=O)Nc1cccc(Oc2nc(Nc3ccc(N[C@@H]4CCN(CCF)C4)cc3)ncc2OC)c1 [Compound I-14, (R)—N-(3-(2-(4-(1-(2-fluoroethyl)pyrrolidin-3-ylamino)phenylamino)-5-methoxypyrimidin-4-yloxy)phenyl)acrylamide]	10 to 100	≥ 400	10 to 100	
C=CC(=O)Nc1cccc(Nc2nc(Nc3ccc(N[C@@H]4CCN(CCF)C4)cc3)ncc2OC)c1 [Compound I-17, (R)—N-(3-(2-(4-(1-(2-fluoroethyl)pyrrolidin-3-ylamino)phenylamino)-5-methoxypyrimidin-4-ylamino)phenyl)acrylamide]	< 10	≥ 400	≤ 10	
C=CC(=O)Nc1cccc(Nc2nc(Nc3ccc(N4CCN(CCF)CC4)cc3)ncc2OC)c1 [Compound I-5]	< 10	200 to 400	≤ 10	
C=CC(=O)Nc1cccc(Nc2nc(Nc3ccc(N4CCN(CCF)CC4)c(F)c3)ncc2F)c1 [Compound I-4, N-(3-((5-fluoro-2-((3-fluoro-4-(4-(2-fluoroethyl)piperazin-1yl)phenyl)amino)pyrimidin-4-yl)amino)phenyl)acrylamide]	< 10	200 to 400	≤ 10	
C=CC(=O)Nc1cccc(Nc2nc(Nc3ccc(N[C@H]4CCN(CCF)C4)cc3)ncc2F)c1 [Compound I-15]	< 10	≥ 400	≤ 10	
C=CC(=O)Nc1cccc(Nc2nc(Nc3ccc(N4CCN(CCF)CC4)c(F)c3)ncc2OC)c1 [Compound I-7]	10 to 100	≥ 400	10 to 100	
